From ChEMBL document CHEMBL5465560, “Selectivity Literature for EUbOPEN Chemogenomic Library” (2024)
One block for each molecule: values may come before it.

Tests used:
[1] = molecular target: Fibroblast growth factor receptor 1 (Homo sapiens, UniProt P11362); conditions: at 10 µM
[2] = molecular target: Protein arginine N-methyltransferase 7 (Homo sapiens, UniProt Q9NVM4); assay: Selectivity interaction (Scintillation proximity assays) EUB0000255b PRMT7
[3] = molecular target: T1, Serine/threonine-protein kinase Sgk2 (Homo sapiens) (UniProt Q9HBY8); assay: Selectivity interaction (KinomeScan (DiscoverX)) EUB0001079a SGK2; conditions: at 1 µM
T1 sequence (whole entry): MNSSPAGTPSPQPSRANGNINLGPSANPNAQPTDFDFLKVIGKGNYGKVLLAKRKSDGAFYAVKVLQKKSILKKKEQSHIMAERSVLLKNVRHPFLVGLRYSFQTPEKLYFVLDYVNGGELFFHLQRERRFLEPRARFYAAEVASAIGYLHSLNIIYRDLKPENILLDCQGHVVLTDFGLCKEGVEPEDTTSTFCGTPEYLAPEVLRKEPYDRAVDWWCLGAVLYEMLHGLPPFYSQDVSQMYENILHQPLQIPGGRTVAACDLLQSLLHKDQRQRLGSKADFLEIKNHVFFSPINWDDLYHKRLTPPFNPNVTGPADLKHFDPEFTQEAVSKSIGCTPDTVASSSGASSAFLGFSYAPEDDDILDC

[4] = molecular target: Dual specificity protein kinase CLK3 (Homo sapiens, UniProt P49761); assay: Selectivity interaction (KinomeScan (DiscoverX)) EUB0000618a CLK3; conditions: at 10 µM
Chain of Dual specificity protein kinase CLK3 (P49761 whole entry, looked up): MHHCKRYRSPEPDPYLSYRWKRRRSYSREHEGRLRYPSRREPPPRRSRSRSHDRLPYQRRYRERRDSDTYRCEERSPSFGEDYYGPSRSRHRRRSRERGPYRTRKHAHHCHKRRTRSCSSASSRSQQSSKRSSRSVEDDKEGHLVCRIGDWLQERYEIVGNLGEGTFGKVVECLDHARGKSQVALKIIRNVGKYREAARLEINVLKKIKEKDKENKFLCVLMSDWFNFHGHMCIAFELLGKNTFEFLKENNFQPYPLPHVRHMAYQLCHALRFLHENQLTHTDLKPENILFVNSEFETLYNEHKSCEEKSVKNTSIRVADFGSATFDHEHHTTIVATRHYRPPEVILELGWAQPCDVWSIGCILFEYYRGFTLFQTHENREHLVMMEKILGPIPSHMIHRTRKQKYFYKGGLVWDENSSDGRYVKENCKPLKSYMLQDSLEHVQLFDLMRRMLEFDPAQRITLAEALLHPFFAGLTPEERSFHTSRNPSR

[5] = molecular target: Interferon-induced, double-stranded RNA-activated protein kinase (Homo sapiens) (UniProt P19525); assay: Selectivity interaction (KinomeScan (DiscoverX)) EUB0000618a EIF2AK2; conditions: at 10 µM
[6] = molecular target: Cyclin-dependent kinase 18 (Homo sapiens) (UniProt Q07002); assay: Selectivity interaction (KinomeScan (DiscoverX)) EUB0000618a CDK18; conditions: at 10 µM
[7] = molecular target: Phosphatidylinositol 4-phosphate 5-kinase type-1 alpha (Homo sapiens) (UniProt Q99755); assay: Selectivity interaction (KinomeScan (DiscoverX)) EUB0000607a PIP5K1A; conditions: at 10 µM
[8] = molecular target: Proto-oncogene tyrosine-protein kinase Src (Homo sapiens, UniProt P12931); assay: Selectivity interaction (KinomeScan (DiscoverX)) EUB0001619a SRC; conditions: at 1 µM
Chain of Proto-oncogene tyrosine-protein kinase Src (P12931 2-536 limits assumed): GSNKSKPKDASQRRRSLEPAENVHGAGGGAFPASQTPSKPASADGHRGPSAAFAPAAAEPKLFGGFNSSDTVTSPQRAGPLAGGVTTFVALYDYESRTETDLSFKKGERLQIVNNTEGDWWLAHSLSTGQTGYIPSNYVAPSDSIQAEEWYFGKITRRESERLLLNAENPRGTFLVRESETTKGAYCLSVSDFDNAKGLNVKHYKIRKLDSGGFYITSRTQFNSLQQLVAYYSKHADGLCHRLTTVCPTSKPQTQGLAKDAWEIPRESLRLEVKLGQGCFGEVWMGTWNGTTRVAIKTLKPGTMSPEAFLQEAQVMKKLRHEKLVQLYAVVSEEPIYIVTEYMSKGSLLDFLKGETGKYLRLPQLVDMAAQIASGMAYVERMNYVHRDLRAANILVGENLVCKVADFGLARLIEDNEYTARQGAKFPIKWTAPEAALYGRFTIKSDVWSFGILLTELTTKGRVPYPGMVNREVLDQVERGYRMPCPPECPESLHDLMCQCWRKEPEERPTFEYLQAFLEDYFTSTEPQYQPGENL

[9] = molecular target: NT-3 growth factor receptor (Homo sapiens, UniProt Q16288); assay: Selectivity interaction (KinomeScan (DiscoverX)) EUB0001619a NTRK3; conditions: at 1 µM
[10] = molecular target: Atypical kinase COQ8A, mitochondrial (Homo sapiens, UniProt Q8NI60); assay: Selectivity interaction (KinomeScan (DiscoverX)) EUB0000595a ADCK3; conditions: at 10 µM
Chain of Atypical kinase COQ8A, mitochondrial (Q8NI60 163-647 limits assumed): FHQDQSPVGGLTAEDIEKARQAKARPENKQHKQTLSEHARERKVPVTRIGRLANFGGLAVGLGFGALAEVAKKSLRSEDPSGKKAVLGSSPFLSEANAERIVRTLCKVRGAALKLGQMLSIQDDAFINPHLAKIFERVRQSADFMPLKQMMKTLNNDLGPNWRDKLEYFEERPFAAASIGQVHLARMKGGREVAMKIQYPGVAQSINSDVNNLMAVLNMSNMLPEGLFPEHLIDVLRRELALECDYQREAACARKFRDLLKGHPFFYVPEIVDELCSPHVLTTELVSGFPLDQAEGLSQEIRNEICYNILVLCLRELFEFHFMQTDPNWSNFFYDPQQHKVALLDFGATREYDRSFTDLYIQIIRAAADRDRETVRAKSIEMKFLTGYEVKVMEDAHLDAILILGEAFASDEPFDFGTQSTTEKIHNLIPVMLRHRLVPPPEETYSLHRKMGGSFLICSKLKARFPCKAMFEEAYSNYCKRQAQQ

[11] = molecular target: T2, Mitogen-activated protein kinase 12 (Homo sapiens) (UniProt P53778); assay: Selectivity interaction (Upstate Kinase Profiler service (Millipore)) EUB0000056c MAPK12; conditions: at 1 µM
T2 sequence (whole entry): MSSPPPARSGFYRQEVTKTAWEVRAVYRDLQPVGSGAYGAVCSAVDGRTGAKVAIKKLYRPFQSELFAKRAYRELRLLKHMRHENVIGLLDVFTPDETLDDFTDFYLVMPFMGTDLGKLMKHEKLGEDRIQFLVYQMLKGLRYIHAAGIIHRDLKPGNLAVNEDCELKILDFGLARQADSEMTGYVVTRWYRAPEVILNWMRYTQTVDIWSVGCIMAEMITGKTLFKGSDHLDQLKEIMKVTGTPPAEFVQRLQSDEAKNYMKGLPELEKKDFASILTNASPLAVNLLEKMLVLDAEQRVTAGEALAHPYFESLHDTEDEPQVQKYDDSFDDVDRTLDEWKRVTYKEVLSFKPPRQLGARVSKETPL

[12] = molecular target: Serine/threonine-protein kinase B-raf (Homo sapiens) (UniProt P15056); assay: Selectivity interaction (Kinase panel (KiNativ target engagement assay in Jurkat cells)) EUB0001635a BRAF; assay type: cell-based; conditions: Selectivity number of off-targets 0.0, Selectivity number of targets 233.0, Source Knowledge https://www.sciencedirect.com/science/article/pii/S2451945619300674?via%3Dihub, at 1 µM
[13] = molecular target: Mitogen-activated protein kinase kinase kinase kinase 4 (Homo sapiens, UniProt O95819); conditions: at 10 µM
[14] = molecular target: Macrophage-stimulating protein receptor (Homo sapiens, UniProt Q04912); assay: Selectivity interaction (Kinase panel (Invitrogen)) EUB0000639a MST1R; conditions: at 200 nM
Chain of Macrophage-stimulating protein receptor (Q04912 25-304 limits assumed): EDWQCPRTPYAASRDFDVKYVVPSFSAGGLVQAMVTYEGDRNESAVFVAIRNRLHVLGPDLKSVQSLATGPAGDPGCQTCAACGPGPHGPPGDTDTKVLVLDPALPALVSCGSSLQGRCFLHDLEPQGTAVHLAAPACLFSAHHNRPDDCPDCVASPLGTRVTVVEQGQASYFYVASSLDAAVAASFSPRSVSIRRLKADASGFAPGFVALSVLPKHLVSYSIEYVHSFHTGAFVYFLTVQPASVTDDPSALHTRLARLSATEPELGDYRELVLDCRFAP
Chain of Macrophage-stimulating protein receptor (Q04912 310-1400 limits assumed): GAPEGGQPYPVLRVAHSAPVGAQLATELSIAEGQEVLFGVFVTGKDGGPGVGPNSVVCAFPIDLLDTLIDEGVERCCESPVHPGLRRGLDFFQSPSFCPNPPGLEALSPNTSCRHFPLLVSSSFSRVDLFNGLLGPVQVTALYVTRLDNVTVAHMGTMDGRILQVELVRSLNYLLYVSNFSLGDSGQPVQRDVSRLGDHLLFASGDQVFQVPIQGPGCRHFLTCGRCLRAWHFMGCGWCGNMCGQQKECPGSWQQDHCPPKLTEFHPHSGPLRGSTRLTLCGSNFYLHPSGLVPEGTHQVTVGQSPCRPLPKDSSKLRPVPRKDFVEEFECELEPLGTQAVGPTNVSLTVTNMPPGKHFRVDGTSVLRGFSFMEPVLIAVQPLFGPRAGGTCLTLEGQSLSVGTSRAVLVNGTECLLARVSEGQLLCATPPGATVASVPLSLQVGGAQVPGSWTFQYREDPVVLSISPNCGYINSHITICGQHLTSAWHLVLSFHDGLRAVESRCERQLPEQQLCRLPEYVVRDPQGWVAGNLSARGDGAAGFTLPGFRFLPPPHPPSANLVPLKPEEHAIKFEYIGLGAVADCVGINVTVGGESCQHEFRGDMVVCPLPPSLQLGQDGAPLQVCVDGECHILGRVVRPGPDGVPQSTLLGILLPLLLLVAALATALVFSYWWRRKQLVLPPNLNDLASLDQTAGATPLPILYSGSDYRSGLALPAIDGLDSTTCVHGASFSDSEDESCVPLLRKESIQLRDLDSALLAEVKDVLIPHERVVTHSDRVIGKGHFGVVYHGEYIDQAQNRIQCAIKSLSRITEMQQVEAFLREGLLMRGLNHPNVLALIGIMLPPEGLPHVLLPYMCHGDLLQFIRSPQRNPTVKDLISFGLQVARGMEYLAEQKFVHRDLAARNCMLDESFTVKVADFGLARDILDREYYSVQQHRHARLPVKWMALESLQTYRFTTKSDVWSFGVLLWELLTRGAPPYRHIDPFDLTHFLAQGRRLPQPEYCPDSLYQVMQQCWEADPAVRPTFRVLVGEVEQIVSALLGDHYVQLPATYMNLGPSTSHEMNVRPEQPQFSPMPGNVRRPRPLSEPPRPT

[15] = molecular target: DNA-dependent protein kinase catalytic subunit (Homo sapiens) (UniProt P78527); assay: Selectivity interaction (ActivX KiNativ screen (kinase selectivity in THP-1 cell lysates)) EUB0000639a PRKDC; assay type: subcellular; conditions: lysate, at 0.2 µM
[16] = molecular target: Serine/threonine-protein kinase 25 (Homo sapiens) (UniProt O00506); assay: Selectivity interaction (KinomeScan (DiscoverX)) EUB0001049a STK25; conditions: at 1 µM
[17] = molecular target: Endothelin-1 receptor (Homo sapiens, UniProt P25101); assay: Selectivity interaction (Endothelin A receptor binding assay, human recombinant ) EUB0000877a EDNRA
[18] = molecular target: Tyrosine-protein kinase FRK (Homo sapiens) (UniProt P42685); assay: Selectivity interaction (KinomeScan (DiscoverX)) EUB0000666a FRK; conditions: at 10 µM
Chain of Tyrosine-protein kinase FRK (Homo sapiens) (P42685 whole entry): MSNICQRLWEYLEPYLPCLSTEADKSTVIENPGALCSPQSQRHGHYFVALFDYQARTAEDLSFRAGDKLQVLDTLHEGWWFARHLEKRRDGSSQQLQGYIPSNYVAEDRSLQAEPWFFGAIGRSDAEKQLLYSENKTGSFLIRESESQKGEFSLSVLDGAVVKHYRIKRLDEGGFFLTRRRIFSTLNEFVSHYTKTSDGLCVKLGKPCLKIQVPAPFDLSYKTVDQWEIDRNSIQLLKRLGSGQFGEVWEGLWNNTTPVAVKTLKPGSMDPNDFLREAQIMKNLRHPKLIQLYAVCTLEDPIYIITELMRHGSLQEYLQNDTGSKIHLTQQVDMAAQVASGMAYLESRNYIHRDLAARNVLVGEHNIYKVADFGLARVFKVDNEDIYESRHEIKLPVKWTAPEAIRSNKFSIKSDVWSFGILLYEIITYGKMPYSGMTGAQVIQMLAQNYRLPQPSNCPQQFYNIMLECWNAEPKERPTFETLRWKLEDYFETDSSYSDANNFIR

[19] = molecular target: Receptor-interacting serine/threonine-protein kinase 2 (Homo sapiens, UniProt O43353); assay: Selectivity interaction (KinomeScan (DiscoverX)) EUB0000092b RIPK2; conditions: at 10 µM
[20] = molecular target: Tyrosine-protein kinase JAK1 (Homo sapiens, UniProt P23458); assay: Selectivity interaction (KinomeScan (DiscoverX)) EUB0001868a JAK1; conditions: at 1 µM
[21] = molecular target: Cyclin-dependent kinase 5/CDK5 activator 1 (Homo sapiens) (UniProt Q00535+Q15078); assay: Selectivity interaction (Kinase panel (Z-LYTE Assay)) EUB0001632a CDK5; assay type: protein-complex assay; conditions: at 10 µM
Chain of Cyclin-dependent kinase 5/CDK5 activator 1 (Homo sapiens) (Q00535 whole entry): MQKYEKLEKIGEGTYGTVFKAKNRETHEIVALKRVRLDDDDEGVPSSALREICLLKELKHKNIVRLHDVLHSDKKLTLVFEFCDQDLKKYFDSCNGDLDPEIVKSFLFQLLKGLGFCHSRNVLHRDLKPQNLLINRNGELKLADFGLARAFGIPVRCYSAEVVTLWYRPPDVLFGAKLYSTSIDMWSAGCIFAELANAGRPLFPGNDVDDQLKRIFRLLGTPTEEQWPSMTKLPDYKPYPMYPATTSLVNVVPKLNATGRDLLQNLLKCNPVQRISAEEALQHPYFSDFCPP
Chain of Cyclin-dependent kinase 5/CDK5 activator 1 (Homo sapiens) (Q15078 99-307 partner limits assumed): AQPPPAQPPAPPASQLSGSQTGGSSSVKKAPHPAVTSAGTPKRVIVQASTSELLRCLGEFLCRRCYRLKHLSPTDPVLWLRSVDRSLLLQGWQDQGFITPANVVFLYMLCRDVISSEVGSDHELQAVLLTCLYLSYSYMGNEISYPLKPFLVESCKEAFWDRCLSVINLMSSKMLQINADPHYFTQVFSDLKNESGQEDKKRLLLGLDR

[22] = molecular target: RAC-gamma serine/threonine-protein kinase (Homo sapiens, UniProt Q9Y243); assay: Selectivity interaction (Kinase panel (Z-LYTE Assay)) EUB0001632a AKT3; conditions: at 10 µM
Chain of RAC-gamma serine/threonine-protein kinase (Q9Y243 whole entry): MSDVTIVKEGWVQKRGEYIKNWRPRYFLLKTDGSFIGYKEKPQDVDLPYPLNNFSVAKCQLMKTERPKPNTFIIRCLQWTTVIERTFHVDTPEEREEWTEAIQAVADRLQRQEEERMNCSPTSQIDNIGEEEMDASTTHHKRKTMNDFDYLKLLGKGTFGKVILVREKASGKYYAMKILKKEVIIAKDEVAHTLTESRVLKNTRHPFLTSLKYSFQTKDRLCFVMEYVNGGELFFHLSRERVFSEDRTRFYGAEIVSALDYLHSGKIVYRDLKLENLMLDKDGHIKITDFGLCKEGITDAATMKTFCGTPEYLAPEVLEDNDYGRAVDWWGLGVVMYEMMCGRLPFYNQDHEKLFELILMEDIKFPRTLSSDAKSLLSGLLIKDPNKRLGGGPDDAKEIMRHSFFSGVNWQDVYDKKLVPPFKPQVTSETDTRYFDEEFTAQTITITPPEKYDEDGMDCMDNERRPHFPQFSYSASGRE

[23] = molecular target: Serine/threonine-protein kinase 16 (Homo sapiens, UniProt O75716); assay: Selectivity interaction (KinomeScan (DiscoverX)) EUB0000695a STK16; conditions: at 100 nM
Chain of Serine/threonine-protein kinase 16 (O75716 whole entry): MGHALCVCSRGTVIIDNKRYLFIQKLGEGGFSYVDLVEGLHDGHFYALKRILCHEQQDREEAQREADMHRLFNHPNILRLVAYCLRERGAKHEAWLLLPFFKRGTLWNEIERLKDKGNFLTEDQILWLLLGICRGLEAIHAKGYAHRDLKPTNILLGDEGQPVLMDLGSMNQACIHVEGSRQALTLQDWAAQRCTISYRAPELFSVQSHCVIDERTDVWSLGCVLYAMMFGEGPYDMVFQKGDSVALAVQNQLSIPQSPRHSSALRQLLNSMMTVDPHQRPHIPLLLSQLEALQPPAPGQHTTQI

% of control [1]: 0.4%
Structure (SMILES): CCN(CC)CCCCNc1ncc2cc(-c3cc(OC)cc(OC)c3)c(NC(=O)NC(C)(C)C)nc2n1

Structure (SMILES): COCCN1CCC(c2cc(CN(C)C(=O)c3cccc(Oc4ccccc4)c3)ccn2)CC1
IC50 [2]: > 10 µM

Structure (SMILES): Nc1cnc(N2CCc3cc(S(=O)(=O)Nc4c(F)cc(Cl)cc4F)cc(N4CCCC4=O)c32)nc1 [TP-020n]
% of control [3]: 76%

Structure (SMILES): O[C@H]1CC[C@H](Nc2ncc3nc(Nc4c(F)cc(F)cc4F)n([C@H]4CCOC4)c3n2)CC1
% of control [4]: 93%
% of control [5]: 100%
% of control [6]: 100%

Structure (SMILES): CNC(=O)Nc1ccc(-c2nc(N3CC4CCC(C3)O4)c3cnn(C4CCC5(CC4)OCCO5)c3n2)cc1
% of control [7]: 84%

Structure (SMILES): N#Cc1cccc(-c2c[nH]c3ncnc(N4CCOCC4)c23)c1
% of control [8]: 100%
% of control [9]: 84%

Structure (SMILES): COCC(=O)NC/C=C/c1ccc2ncnc(Nc3ccc(Oc4ccc(C)nc4)c(C)c3)c2c1 [CP-724714]
% of control [10]: 100%

% of inhibition [11]: -15%
Structure (SMILES): Cc1ccc(-c2ccc3c(ccc4sc5c(c43)NC[C@@H](C)NC5=O)n2)cn1

Structure (SMILES): C=CC(=O)Nc1ccc(C(=O)Nc2[nH]nc3c2CN(C(=O)N[C@H](CN(C)C)c2ccccc2)C3(C)C)cc1
% of engagement [12]: 2.4%

Structure (SMILES): Cc1cc([C@@H](C)Nc2ccccc2C(=O)O)c2nc(N3CCOCC3)cc(=O)n2c1 [AZD-6482]
% of control [13]: 97%

% of inhibition [14]: 12.6%
% of inhibition [15]: -5.7%
Structure (SMILES): CC[C@@H]1[C@H](F)C(=O)N[C@@H]1COc1nccc2cc(C(N)=O)c(OC)cc12 [ZIMLOVISERTIB]

Structure (SMILES): COc1cc(Nc2nc(C)cc(-c3cnn4nc(OC)ccc34)n2)cc(C(F)(F)F)c1
% of control [16]: 91%

IC50 [17]: > 30 µM
Structure (SMILES): CCC(=O)N1CC[C@H](Nc2ncnc3c2CN(c2cnc(OC)c(C(F)(F)F)c2)CC3)C1 [LENIOLISIB]

Structure (SMILES): O=C(NOC[C@H](O)CO)c1ccc(F)c(F)c1Nc1ccc(I)cc1F
% of control [18]: 60%

Structure (SMILES): CCC(=O)N1CCN(c2ccc(-n3c(=O)ccc4cnc5ccc(-c6cnc7ccccc7c6)cc5c43)cc2C(F)(F)F)CC1
% of control [19]: 44%

% of control [20]: 29%
Structure (SMILES): Cc1cc(-c2ccnc(Nc3cnn(C)c3)n2)ccc1CNC(=O)N1CC(OC(C)C)C1

% of control [21]: 5.78%
% of control [22]: 2.65%
Structure (SMILES): Cn1cc(-n2cnc3c(NCc4nc5cc(Cl)c(Cl)cc5[nH]4)nc(N4CCOCC4)nc32)cn1

Structure (SMILES): Cc1cc(F)c(C(=O)Nc2cccc(-c3nncn3C(C)C)n2)cc1-n1cnc(C2CC2)c1
% of control [23]: 83%
